#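 Test compounds were applied to cells in 96-well plates for 48 hours at 5 doses. At the GI50, growth is halved.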 Active and inactive are the calls of the source. No stated cut-off is given here; in the data, active = GI50 up to about 1.1 µM and inactive = higher.
# Key:
# Test in all cases: DTP human tumour cell line panel, 48 h
# [1] = tested on: M14
# [2] = tested on: HT-29
# [3] = tested on: COLO 205
# [4] = tested on: BT-549
# [5] = tested on: SF-539
# [6] = tested on: EKVX
# [7] = tested on: UACC-62
# [8] = tested on: OVCAR-3
# [9] = tested on: CCRF-CEM
# [10] = tested on: SNB-19
# [11] = tested on: MCF7
# [12] = tested on: NCI-H23
# [13] = tested on: U-251
# [14] = tested on: SF-268
# [15] = tested on: HOP-62
# [16] = tested on: NCI-H226
# [17] = tested on: OVCAR-8
# [18] = tested on: MOLT-4
# [19] = tested on: CAKI-1
# [20] = tested on: LOX IMVI
Structure (SMILES),GI50 [1],GI50 [2],GI50 [3],GI50 [4],GI50 [5],GI50 [6],GI50 [7],GI50 [8],GI50 [9],GI50 [10],GI50 [11],GI50 [12],GI50 [13],GI50 [14],GI50 [15],GI50 [16],GI50 [17],GI50 [18],GI50 [19],GI50 [20]
CC(C)c1nc2c(Cl)c3ncccc3cc2[nH]c1=O,> 100 µM (inactive),> 100 µM (inactive),> 100 µM (inactive),54.5 µM (inactive),> 100 µM (inactive),9.71 µM (inactive),> 100 µM (inactive),> 100 µM (inactive),46.2 µM (inactive),> 100 µM (inactive),> 100 µM (inactive),80.2 µM (inactive),73.3 µM (inactive),34.1 µM (inactive),32.7 µM (inactive),65.9 µM (inactive),29.2 µM (inactive),29.6 µM (inactive),94.6 µM (inactive),
Clc1ccc(OCc2nnc(CCCCCCCCc3nnc(COc4ccc(Cl)cc4)n3Nc3ccccc3)n2Nc2ccccc2)cc1,2.08 µM (inactive),5.24 µM (inactive),0.318 µM (active),11.6 µM (inactive),0.962 µM (active),12.9 µM (inactive),0.895 µM (active),14.2 µM (inactive),,12.9 µM (inactive),3.75 µM (inactive),18.2 µM (inactive),23.5 µM (inactive),12.8 µM (inactive),1.08 µM (active),9.62 µM (inactive),30.4 µM (inactive),12.3 µM (inactive),0.531 µM (active),21.7 µM (inactive)
c1csc(-c2cc(-c3ccsc3)c(-c3cccs3)s2)c1,56.1 µM (inactive),43.6 µM (inactive),23.1 µM (inactive),46.2 µM (inactive),> 100 µM (inactive),16 µM (inactive),48.4 µM (inactive),> 100 µM (inactive),28.8 µM (inactive),> 100 µM (inactive),6.75 µM (inactive),58.7 µM (inactive),81.3 µM (inactive),> 100 µM (inactive),> 100 µM (inactive),> 100 µM (inactive),> 100 µM (inactive),30.1 µM (inactive),> 100 µM (inactive),
CC1(C)OC(=S)N(c2ccccc2)C12C=Cc1cc3ccccc3cc1O2 (stereo unspecified),> 100 µM (inactive),> 100 µM (inactive),> 100 µM (inactive),> 100 µM (inactive),,> 100 µM (inactive),> 100 µM (inactive),> 100 µM (inactive),> 100 µM (inactive),> 100 µM (inactive),> 100 µM (inactive),> 100 µM (inactive),> 100 µM (inactive),> 100 µM (inactive),> 100 µM (inactive),> 100 µM (inactive),> 100 µM (inactive),> 100 µM (inactive),> 100 µM (inactive),> 100 µM (inactive)
C/C(=N\NC1=NCCN1)c1cn(C2=NCCN2)nc1C,> 100 µM (inactive),> 100 µM (inactive),> 100 µM (inactive),> 100 µM (inactive),> 100 µM (inactive),> 100 µM (inactive),> 100 µM (inactive),> 100 µM (inactive),,> 100 µM (inactive),> 100 µM (inactive),> 100 µM (inactive),> 100 µM (inactive),> 100 µM (inactive),> 100 µM (inactive),> 100 µM (inactive),> 100 µM (inactive),,> 100 µM (inactive),
COc1cc2[nH]c(=O)[nH]c2c2c(C)c[nH]c12,> 100 µM (inactive),> 100 µM (inactive),> 100 µM (inactive),> 100 µM (inactive),,> 100 µM (inactive),> 100 µM (inactive),> 100 µM (inactive),> 100 µM (inactive),> 100 µM (inactive),> 100 µM (inactive),> 100 µM (inactive),> 100 µM (inactive),> 100 µM (inactive),> 100 µM (inactive),> 100 µM (inactive),> 100 µM (inactive),> 100 µM (inactive),> 100 µM (inactive),> 100 µM (inactive)
O=C(Sc1c(-c2ccccc2)c(=O)n(-c2ccccc2)c(=S)n1-c1ccccc1)c1cccs1,53.6 µM (inactive),72.3 µM (inactive),> 100 µM (inactive),> 100 µM (inactive),,> 100 µM (inactive),> 10 µM (inactive),> 100 µM (inactive),11.8 µM (inactive),> 100 µM (inactive),50.4 µM (inactive),> 100 µM (inactive),84.1 µM (inactive),> 100 µM (inactive),> 100 µM (inactive),> 100 µM (inactive),73.3 µM (inactive),18.7 µM (inactive),> 100 µM (inactive),11.4 µM (inactive)
